Series [1] concerns Corn Earworm (Helicoverpa zea). As to the kind of experiment: Bioassay on Corn Earworm (CEW), 128-well diet tray assay. In kind it is in vivo. The following applies: Table 3, Assays Results Part 1. Here is the method:
(§1) Certain molecules disclosed in this document were tested against BAW, CEW and CL using procedures described in the following examples. In the reporting of the results, the “BAW & CEW & CL Rating Table” was used (See Table Section).
Bioassays on CEW (Helicoverpa zea)
Bioassays on CEW were conducted using a 128-well diet tray assay. One to five second instar CEW larvae were placed in each well (3 mL) of the diet tray that had been previously filled with 1 mL of artificial diet to which 50 μg/cm^2 of the test compound (dissolved in 50 μL of 90:10 acetone-water mixture) had been applied (to each of eight wells) and then allowed to dry. Trays were covered with a clear self-adhesive cover, and held at 25° C., 14:10 light-dark for five to seven days. Percent mortality was recorded for the larvae in each well; activity in the eight wells was then averaged. The results are indicated in the table entitled “Table 3: Assay Results Part 1” (See Table Section).

Series [2] deals with Green Peach Aphid (Myzus persicae). As to the kind of experiment: Bioassay on Green Peach Aphid (GPA), foliar spray on cabbage seedlings. The series is classed as in vivo. The following applies: for pest or weed control at 200 ppm / pest or weed control at 200 µg/mL: Myzus persicae, 72 h, read-out: GPA Rating; for pest or weed control at 200 ppm: corrected % control (Abbott), 200 ppm foliar spray on cabbage seedlings, three days; for pest or weed control at 200 µg/mL: foliar, Table 5, Prophetic Compounds Subsequently Exemplified. On the procedure: Certain molecules disclosed in this document were tested against GPA using procedures described in the following example. In the reporting of the results, the “GPA Rating Table” was used (See Table Section). Cabbage seedlings grown in 3-inch pots, with 2-3 small (3-5 cm) true leaves, were used as test substrate. The seedlings were infested with 20-50 GPA (wingless adult and nymph stages) one day prior to chemical application. Four pots with individual seedlings were used for each treatment. Test compounds (2 mg) were dissolved in 2 mL of acetone/MeOH (1:1) solvent, forming stock solutions of 1000 ppm test compound. The stock solutions were diluted 5× with 0.025% Tween 20 in water to obtain the solution at 200 ppm test compound. A hand-held aspirator-type sprayer was used for spraying a solution to both sides of […] leaves until runoff. Reference plants (solvent check) were sprayed with the diluent only containing 20% by volume of acetone/MeOH (1:1) solvent. Treated plants were held in a holding room for three days at approximately 25° C. and ambient relative humidity (RH) prior to grading. Evaluation was conducted by counting the number of live aphids per plant under a microscope. Percent Control was measured by using Abbott's correction formula (W. S. Abbott, “A Method of Computing the Effectiveness of an Insecticide” J. Econ. Entomol. 18 (1925), pp. 265-267) as follows. Corrected % Control=100*(X−Y)/X • where • X=No. of live aphids on solvent check plants and • Y=No. of live aphids on treated plants The results are indicated in the tables entitled “Table 3: Assay Results Part 1” and “Table 4: Assay Results Part 2” (See Table Section).

For series [3], the system named is Beet Armyworm (Spodoptera exigua). As to the kind of experiment: Bioassay on Beet Armyworm (BAW), 128-well diet tray assay. The series is classed as in vivo. The note with it: Spodoptera exigua, 168 h; percent mortality of second instar larvae, 50 μg/cm^2 on artificial diet, five to seven days, 25° C.; read-out: BAW Rating.
For series [4], the system named is Cabbage Looper (Trichoplusia ni). The series can be described thus: Bioassay on Cabbage Looper (CL), 128-well diet tray assay. In kind it is in vivo. The note with it: 168 h, percent mortality of second instar larvae, 50 μg/cm^2 on artificial diet, five to seven days, 25° C., read-out: CL Rating. Here is the method:
as §1
Bioassays on CL (Trichoplusia ni)
Bioassays on CL were conducted using a 128-well diet tray assay. One to five second instar CL larvae were placed in each well (3 mL) of the diet tray that had been previously filled with 1 mL of artificial diet to which 50 μg/cm^2 of the test compound (dissolved in 50 μL of 90:10 acetone-water mixture) had been applied (to each of eight wells) and then allowed to dry. Trays were covered with a clear self-adhesive cover, and held at 25° C., 14:10 light-dark for five to seven days. Percent mortality was recorded for the larvae in each well; activity in the eight wells was then averaged.
“Table 4: Assay Results Part 2” (See Table Section).

For series [5], the system named is Beet Armyworm (Spodoptera exigua). As to the kind of experiment: Bioassay on Beet Armyworm (BAW), 128-well diet tray assay. In kind it is in vivo. The note with it: Table 5, Performed at 12.5 μg/cm^2, read-out: BAW Rating.
Series [6] concerns Cabbage Looper (Trichoplusia ni). The series can be described thus: Bioassay on Cabbage Looper (CL), 128-well diet tray assay. In kind it is in vivo. The note with it: Table 5, Performed at 12.5 μg/cm^2, read-out: CL Rating.

Turning to `NC(=O)c1ccc(/C=C/C(c2cc(Cl)cc(Cl)c2)C(F)(F)F)cc1` (stereo not drawn) [AC2], the melting point lay within 110 to 112 °C.

In the case of `O=C(NCc1ccc(/C=C/C(c2cc(Cl)c(Cl)c(Cl)c2)C(F)(F)F)cc1C(F)(F)F)c1cccnc1` (stereo not drawn) [CC23], the “CEW Rating” value in series [1] is “A (50-100)”. Also, the “GPA Rating” value in series [2] (Table 3, Assays Results Part 1) is recorded as “B (More than 0-Less than 80)”.

Consider `O=C(NCc1ccc(/C=C/C(c2cc(Cl)c(Cl)c(Cl)c2)C(F)(F)F)cc1Cl)Oc1ccccc1Cl` (stereo not drawn) [CC40], for which, in series [1], the “CEW Rating” value was “A (50-100)”.

As to `CC(C)(NC(=O)c1ccc(/C=C/C(c2cc(Cl)c(Cl)c(Cl)c2)C(F)(F)F)cc1Br)C(=O)NCC(F)(F)F` (stereo not drawn) [Compound F1, (E)-2-Bromo-N-(2-methyl-1-oxo-1-((2,2,2-trifluoroethyl)amino)propan-2-yl)-4-(4,4,4-trifluoro-3-(3,4,5-trichlorophenyl)but-1-en-1-yl)benzamide], the pest or weed control at 50 µg/cm2, 50 µg/cm2 in series [3] and in series [4] was 50 to 100% each time. The pest or weed control at 200 ppm in series [2] fell in the range of 0 to 80%.

Regarding `C[C@@H](NC(=O)c1ccc(/C=C/[C@H](c2cc(Cl)c(Cl)c(Cl)c2)C(F)(F)F)cc1C(F)(F)F)C(=O)NCC(F)(F)F` [Compound F20A, N—((R)-1-Oxo-1-((2,2,2-trifluoroethyl)amino)propan-2-yl)-4-((E)-4,4,4-trifluoro-3-(3,4,5-trichlorophenyl)but-1-en-1-yl)-2-(trifluoromethyl)benzamide], the pest or weed control at 50 µg/cm2, 50 µg/cm2 in series [3] and in series [4] was 50 to 100% throughout. Also, in series [2], the pest or weed control at 200 ppm was 80 to 100%.

Consider `Cc1cc(/C=C/C(c2cc(Cl)c(Cl)c(Cl)c2)C(F)(F)F)ccc1C(=O)N[C@H](C)C(=S)NCC(F)(F)F` (stereo partly drawn) [Compound F26], for which the pest or weed control at 50 µg/cm2, 50 µg/cm2 in series [3] and in series [4] was 50 to 100% throughout.

Turning to `C[C@@H](NC(=O)c1ccc(/C=C/C(c2cc(Cl)c(Cl)c(Cl)c2)C(F)(F)F)cc1Br)C(=S)NCC(F)(F)F` (stereo partly drawn) [Compound F27], the pest or weed control at 50 µg/cm2, 50 µg/cm2 in series [3] and in series [4] was 50 to 100% throughout.

With `C[C@@H](NC(=O)c1ccc(/C=C/C(c2cc(Cl)c(Cl)c(Cl)c2)C(F)(F)F)cc1C(F)(F)F)C(=S)NCC(F)(F)F` (stereo partly drawn) [Compound F28], the pest or weed control at 50 µg/cm2, 50 µg/cm2 in series [3] and in series [4] was 50 to 100% throughout.

As for `Cc1cc(/C=C/C(c2cc(Cl)c(Cl)c(Cl)c2)C(F)(F)F)ccc1C(=O)NC(C)(C)C(=S)NCC(F)(F)F` (stereo not drawn) [Compound F29], the pest or weed control at 50 µg/cm2, 50 µg/cm2 in series [3] and in series [4] was 50 to 100% in each case.

In the case of `C[C@@H](NC(=O)c1ccc(/C=C/C(c2cc(Cl)c(Cl)c(Cl)c2)C(F)(F)F)cc1Cl)C(=S)NCC(F)(F)F` (stereo partly drawn) [Compound F30], the pest or weed control at 50 µg/cm2, 50 µg/cm2 in series [3] and in series [4] was 50 to 100% in each case.

With `Cc1cc(/C=C/C(c2cc(Cl)c(Cl)c(Cl)c2)C(F)(F)F)ccc1C(=S)NC(C)(C)C(=S)NCC(F)(F)F` (stereo not drawn) [Compound F31, (E)-2-Methyl-N-(2-methyl-1-thioxo-1-(2,2,2-trifluoroethylamino)propan-2-yl)-4-(4,4,4-trifluoro-3-(3,4,5-trichlorophenyl)but-1-enyl)benzothioamide], the pest or weed control at 50 µg/cm2, 50 µg/cm2 in series [3] and in series [4] was 50 to 100% throughout.

Consider `C[C@@H](NC(=O)c1ccc(/C=C/C(c2cc(F)cc(Br)c2)C(F)(F)F)cc1Br)C(=O)NCC(F)(F)F` (stereo partly drawn) [Compound P298], for which, in series [2], the pest or weed control at 200 µg/mL is 0 to 80%.

Consider `O=C(CNC(=O)c1ccc(/C=C/C(c2cc(Cl)cc(C(F)(F)F)c2)C(F)(F)F)cc1Br)NCC(F)(F)F` (stereo not drawn) [Compound P1411], for which the pest or weed control at 200 µg/mL in series [2] lay within 0 to 80%.

For the compound `O=C(CNC(=O)c1ccc(/C=C/C(c2cc(Cl)c(Cl)c(Cl)c2)C(F)(F)F)cc1C(F)(F)F)NCC(F)F` (stereo not drawn) [Compound P1566], in series [2], the pest or weed control at 200 µg/mL is 80 to 100%.

On to `C[C@@H](NC(=O)c1ccc(/C=C/C(c2cc(Cl)c(Cl)c(Cl)c2)C(F)(F)C(F)(F)F)cc1C(F)(F)F)C(=O)NCC(F)(F)F` (stereo partly drawn) [Compound P1601], for which the pest or weed control at 200 µg/mL in series [2] was in the range of 0 to 80%.

Consider `CCNC(=O)[C@@H](C)NC(=O)c1ccc(/C=C/C(c2cc(Cl)c(Cl)c(Cl)c2)C(F)(F)F)cc1C` (stereo partly drawn) [Compound P1624], for which the pest or weed control at 200 µg/mL in series [2] fell in the range of 80 to 100%.

For `CC(NC(=O)c1ccc(/C=C/C(c2cc(Cl)c(Cl)c(Cl)c2)C(F)(F)F)cc1Br)C(=O)NCCC(F)(F)F` (stereo not drawn) [Compound P1631A], in series [2], the pest or weed control at 200 µg/mL fell in the range of 0 to 80%.

Consider `O=C(CNC(=O)c1ccc(/C=C/C(c2cc(Br)cc(Br)c2)C(F)(F)F)cc1Br)NCC(F)(F)F` (stereo not drawn) [Compound P1969], for which the pest or weed control at 12.5 µg/cm2, 12.5 µg/cm2 in series [5] and in series [6] was 50 to 100% in each case.

The term melting point denotes the temperature of the solid-liquid transition.

Values taken from patent US9226500B2, “Pesticidal compositions and processes related thereto” (Dow AgroSciences LLC, priority 2012, dated 2016).
